Molecular target: GLP-1R (Homo sapiens, UniProt P43220)
Experiment: GLP-1R Activation - cAMP Assay
Type: cell-based
Conditions: each compound run on one of the two cAMP assays (Assay 1 or Assay 2, not specified)
Method in brief: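 CHO cells stably expressing GLP-1R, plated at 1,000 cells/well overnight, then equilibrated 1 h in HBSS with 20 mM Hepes and 0.1% BSA. Agonist added as 10-point dose response for 30 min at 37 °C. cAMP measured by HTRF (Cisbio Gs Dynamic kit); EC50 from sigmoidal fit.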

[1] = cAMP increase in CHO cells stably expressing GLP-1R

Sequence of GLP-1R (P43220 24-463): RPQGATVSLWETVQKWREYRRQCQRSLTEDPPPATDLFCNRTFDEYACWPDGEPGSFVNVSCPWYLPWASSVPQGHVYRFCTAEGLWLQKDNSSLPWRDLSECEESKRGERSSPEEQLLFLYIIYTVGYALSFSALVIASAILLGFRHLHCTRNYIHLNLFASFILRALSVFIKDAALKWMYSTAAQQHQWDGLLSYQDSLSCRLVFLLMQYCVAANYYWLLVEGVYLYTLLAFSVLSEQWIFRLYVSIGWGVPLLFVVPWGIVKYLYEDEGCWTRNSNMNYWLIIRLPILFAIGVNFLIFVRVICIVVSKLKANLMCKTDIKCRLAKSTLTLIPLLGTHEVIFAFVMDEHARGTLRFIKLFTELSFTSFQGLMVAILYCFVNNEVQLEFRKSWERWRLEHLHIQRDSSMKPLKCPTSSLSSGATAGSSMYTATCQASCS

## CC1(C)COCC1n1c(Cc2cc(F)c(-c3cccc(OCc4ccc(C#N)cc4F)n3)cc2F)nc2ccc(C(=O)O)c(F)c21 (stereo not shown) [Example 165, 2-(4-(6-((4-cyano-2-fluorobenzyl)oxy)pyridin-2-yl)-2,5-difluorobenzyl)-1-(4,4-dimethyltetrahydrofuran-3-yl)-7-fluoro-1H-benzo[d]imidazole-6-carboxylic Acid]
[1]
  EC50: 0.553 nM

## Cc1cc(Cc2nc3c(F)cc(C(=O)O)cc3n2[C@@H]2COCC2(C)C)c(Cl)cc1-c1cccc(OCc2ccc(C#N)cc2)n1 [Example 133, (S)-2-(2-chloro-4-(6-((4-cyanobenzyl)oxy)pyridin-2-yl)-5-methylbenzyl)-1-(4,4-dimethyltetrahydrofuran-3-yl)-4-fluoro-1H-benzo[d]imidazole-6-carboxylic Acid]
[1]
  EC50: 0.021 nM

## Cc1cc(Cc2nc3ccc(C(=O)O)cc3n2[C@@H]2COCC2(C)C)c(F)cc1-c1ccnc(OCc2ccc(C#N)cc2)n1 [Example 178, (S)-2-(4-(2-((4-cyanobenzyl)oxy)pyrimidin-4-yl)-2-fluoro-5-methylbenzyl)-1-(4,4-dimethyltetrahydrofuran-3-yl)-1H-benzo[d]imidazole-6-carboxylic Acid]
[1]
  EC50: 0.499 nM

## CC1(C)COC[C@H]1n1c(Cn2cc(F)c(-c3ccc(F)c(OCc4ccc(Cl)cc4F)n3)cc2=O)nc2c(F)cc(C(=O)O)cc21 [Example 131, (S)-2-((6-((4-chloro-2-fluorobenzyl)oxy)-5,5′-difluoro-2′-oxo-[2,4′-bipyridin]-1′(2′H)-yl)methyl)-1-(4,4-dimethyltetrahydrofuran-3-yl)-4-fluoro-1H-benzo[d]imidazole-6-carboxylic Acid]
[1]
  EC50: 0.145 nM

## CC1(C)COC[C@H]1n1c(Cc2ccc(-c3cccc(OCc4ccc(Cl)cc4F)n3)cc2F)nc2ccc(C(=O)O)cc21 [Example 331, (S)-2-(4-(6-((4-chloro-2-fluorobenzyl)oxy)pyridin-2-yl)-2-fluorobenzyl)-1-(4,4-dimethyltetrahydrofuran-3-yl)-1H-benzo[d]imidazole-6-carboxylic acid]
[1]
  EC50: 0.218 nM

## COCCn1c(Cc2cc(F)c(-c3cccc(OCc4ccc(-n5ccnn5)nc4)n3)cc2Cl)nc2c(F)cc(C(=O)O)cc21 [Example 350, 2-(4-(6-((6-(1H-1,2,3-triazol-1-yl)pyridin-3-yl)methoxy)pyridin-2-yl)-2-chloro-5-fluorobenzyl)-4-fluoro-1-(2-methoxyethyl)-1H-benzo[d]imidazole-6-carboxylic acid]
[1]
  EC50: 0.171 nM

## CC1(C)COC[C@H]1n1c(Cc2cc(F)c(-c3ccc(F)c(OCc4ccc(C#N)cc4F)n3)cc2F)nc2ccc(C(=O)O)cc21 [Example 496, (S)-2-(4-(6-((4-cyano-2-fluorobenzyl)oxy)-5-fluoropyridin-2-yl)-2,5-difluorobenzyl)-1-(4,4-dimethyltetrahydrofuran-3-yl)-1H-benzo[d]imidazole-6-carboxylic acid]
[1]
  EC50: 0.026 nM

## CC1(C)COC[C@H]1n1c(Cc2cc(F)c(-c3cccc(OCc4cnc(-c5cnn(C(F)F)c5)cc4Cl)n3)cc2F)nc2ccc(C(=O)O)cc21 [Example 552, (S)-2-(4-(6-((4-chloro-6-(1-(difluoromethyl)-1H-pyrazol-4-yl)pyridin-3-yl)methoxy)pyridin-2-yl)-2,5-difluorobenzyl)-1-(4,4-dimethyltetrahydrofuran-3-yl)-1H-benzo[d]imidazole-6-carboxylic acid]
[1]
  EC50: 0.99 nM

## CC1(C)COC[C@H]1n1c(Cc2cc(F)c(-c3ccc(F)c(OCc4ccc(-n5ccnn5)cc4)n3)cc2F)nc2ccc(C(=O)O)cc21 [Example 181, (S)-2-(4-(6-((4-(1H-1,2,3-triazol-1-yl)benzyl)oxy)-5-fluoropyridin-2-yl)-2,5-difluorobenzyl)-1-(4,4-dimethyltetrahydrofuran-3-yl)-1H-benzo[d]imidazole-6-carboxylic Acid]
[1]
  EC50: 0.025 nM

## CC1(C)COC[C@H]1n1c(Cc2cc(F)c(-c3cccc(OCc4cc(F)c(C#N)cc4F)n3)cc2F)nc2c(F)cc(C(=O)O)cc21 [Example 204, (S)-2-(4-(6-((4-cyano-2,5-difluorobenzyl)oxy)pyridin-2-yl)-2,5-difluorobenzyl)-1-(4,4-dimethyltetrahydrofuran-3-yl)-4-fluoro-1H-benzo[d]imidazole-6-carboxylic acid]
[1]
  EC50: 0.09 nM

## CC1(C)COC[C@H]1n1c(Cc2cc(F)c(-c3cccc(OCc4c(F)cc(F)cc4F)n3)cc2F)nc2ccc(C(=O)O)cc21 [Example 458, (S)-2-(2,5-difluoro-4-(6-((2,4,6-trifluorobenzyl)oxy)pyridin-2-yl)benzyl)-1-(4,4-dimethyltetrahydrofuran-3-yl)-1H-benzo[d]imidazole-6-carboxylic acid]
[1]
  EC50: 0.315 nM

## CC1(C)COC[C@H]1n1c(Cc2cc(F)c(-c3cccc(OCc4c(F)cc(C#N)cc4F)n3)cc2F)nc2c(F)cc(C(=O)O)cc21 [Example 498, (S)-2-(4-(6-((4-cyano-2,6-difluorobenzyl)oxy)pyridin-2-yl)-2,5-difluorobenzyl)-1-(4,4-dimethyltetrahydrofuran-3-yl)-4-fluoro-1H-benzo[d]imidazole-6-carboxylic acid]
[1]
  EC50: 0.508 nM

## N#Cc1ccc(COc2cccc(-c3cc(F)c(Cc4nc5ccc(C(=O)O)cc5n4[C@H]4COC[C@H]4C(F)F)cc3F)n2)c(F)c1 (single isomer, unassigned) [Example 234]
[1]
  EC50: 0.448 nM

## CC1(C)COCC1n1c(Cc2cc(F)c(-c3ccnc(OCc4ccc(C(F)F)cc4F)n3)cc2F)nc2c(F)cc(C(=O)O)cc21 (stereo not shown) [Example 504, 2-(4-(2-((4-(difluoromethyl)-2-fluorobenzyl)oxy)pyrimidin-4-yl)-2,5-difluorobenzyl)-1-(4,4-dimethyltetrahydrofuran-3-yl)-4-fluoro-1H-benzo[d]imidazole-6-carboxylic acid]
[1]
  EC50: 0.148 nM

## CC1(C)COC[C@H]1n1c(Cc2c(F)cc(-c3ccc(Cl)c(OCc4ccc(C#N)cc4)n3)c(F)c2F)nc2ccc(C(=O)O)cc21 [Example 415, (S)-2-(4-(5-chloro-6-((4-cyanobenzyl)oxy)pyridin-2-yl)-2,3,6-trifluorobenzyl)-1-(4,4-dimethyltetrahydrofuran-3-yl)-1H-benzo[d]imidazole-6-carboxylic acid]
[1]
  EC50: 0.491 nM

## Cc1ccc(COc2cccc(-c3cc(F)c(Cc4nc5ccc(C(=O)O)cc5n4[C@@H]4COCC4(C)C)cc3F)n2)cc1Cl [Example 452, (S)-2-(4-(6-((3-chloro-4-methylbenzyl)oxy)pyridin-2-yl)-2,5-difluorobenzyl)-1-(4,4-dimethyltetrahydrofuran-3-yl)-1H-benzo[d]imidazole-6-carboxylic acid]
[1]
  EC50: 0.564 nM

## CC1(C)COC[C@H]1n1c(Cc2c(F)cc(-c3cccc(OCc4cnc(-n5ccnn5)cc4Cl)n3)c(F)c2F)nc2ccc(C(=O)O)cc21 [Example 157, (S)-2-(4-(6-((4-chloro-6-(1H-1,2,3-triazol-1-yl)pyridin-3-yl)methoxy)pyridin-2-yl)-2,3,6-trifluorobenzyl)-1-(4,4-dimethyltetrahydrofuran-3-yl)-1H-benzo[d]imidazole-6-carboxylic Acid]
[1]
  EC50: 0.081 nM

## CC1(C)COC[C@H]1n1c(Cc2c(F)cc(-c3cccc(OCc4ccc(C#N)cc4F)n3)c(F)c2F)nc2ccc(C(=O)O)cc21 [Example 120, (S)-2-(4-(6-((4-cyano-2-fluorobenzyl)oxy)pyridin-2-yl)-2,3,6-trifluorobenzyl)-1-(4,4-dimethyltetrahydrofuran-3-yl)-benzimidazole-6-carboxylic Acid]
[1]
  EC50: 0.101 nM

## CO[C@@H]1CCOC[C@@H]1n1c(Cc2cc(F)c(-c3cccc(OCc4ccc(C#N)cc4F)n3)cc2F)nc2ccc(C(=O)O)cc21 (single isomer, unassigned) [Example 408]
[1]
  EC50: 0.633 nM

## CC1(C)COC[C@H]1n1c(Cc2cc(F)c(-c3cccc(OCc4ccc(-c5cnn(C(F)F)c5)cc4)n3)cc2F)nc2ccc(C(=O)O)cc21 [Example 551, (S)-2-(4-(6-((4-(1-(difluoromethyl)-1H-pyrazol-4-yl)benzyl)oxy)pyridin-2-yl)-2,5-difluorobenzyl)-1-(4,4-dimethyltetrahydrofuran-3-yl)-1H-benzo[d]imidazole-6-carboxylic acid]
[1]
  EC50: 0.11 nM

## N#Cc1ccc(COc2cccc(-c3cc(F)c(Cc4nc5ccc(C(=O)O)cc5n4C4CCC45CC5)cc3F)n2)c(F)c1 (stereo not shown) [Example 64, 2-(4-(6-((4-cyano-2-fluorobenzyl)oxy)pyridin-2-yl)-2,5-difluorobenzyl)-1-(spiro[2.3]hexan-4-yl)-1H-benzo[d]imidazole-6-carboxylic Acid]
[1]
  EC50: 1.28 nM

## C[C@H]1COC[C@H]1n1c(Cc2cc(F)c(-c3cccc(OCc4ccc(C#N)cc4F)n3)cc2F)nc2ccc(C(=O)O)cc21 [Example 494, 2-(4-(6-((4-cyano-2-fluorobenzyl)oxy)pyridin-2-yl)-2,5-difluorobenzyl)-1-((3S,4R)-4-methyltetrahydrofuran-3-yl)-1H-benzo[d]imidazole-6-carboxylic acid]
[1]
  EC50: 0.051 nM

## COCCn1c(Cc2cc(F)c(-c3cccc(OCc4ccc(-c5ccnn5C)cc4F)n3)cc2F)nc2ccc(C(=O)O)cc21 [Example 101, 2-(2,5-difluoro-4-(6-((2-fluoro-4-(1-methyl-1H-pyrazol-5-yl)benzyl)oxy)pyridin-2-yl)benzyl)-1-(2-methoxyethyl)-1H-benzo[d]imidazole-6-carboxylic Acid]
[1]
  EC50: 1.46 nM

## CC1(C)COCC1n1c(Cc2cc(F)c(-c3ccnc(OCc4ccc(C(F)(F)F)cc4F)n3)cc2F)nc2c(F)cc(C(=O)O)cc21 (stereo not shown) [Example 200, 2-(2,5-difluoro-4-(2-((2-fluoro-4-(trifluoromethyl)benzyl)oxy)pyrimidin-4-yl)benzyl)-1-(4,4-dimethyltetrahydrofuran-3-yl)-4-fluoro-1H-benzo[d]imidazole-6-carboxylic acid]
[1]
  EC50: 0.508 nM

## CC(=O)N1C[C@H](n2c(Cc3cc(F)c(-c4cccc(OCc5ccc(C#N)cc5F)n4)cc3F)nc3ccc(C(=O)O)cc32)C2(CC2)C1 [Example 14]
[…]
  EC50: 78.7 nM
